For 20 molecules, IC50 results are on record in patent US20240067613A1, “NOVEL QUINAZOLINE DERIVATIVES AS SOS1 INHIBITORS AND USE THEREOF” (HANMI PHARMACEUTICAL CO., LTD., priority 2020, published 2024).

Broadly, the IC50 is the concentration at which inhibition is half-maximal.

For this assay, the target named is T1, SOS1 binding to KRAS G12C (Homo sapiens, UniProt Q07889).
T1 construct: consisting of amino acid residues 564 to 1049 which are the catalytic domain; purchased Reaction Biology Corporation MSC-11-502 (SOS1-Strep); MSC-11-538 (KRAS G12C)
T1 sequence (Q07889 564-1049): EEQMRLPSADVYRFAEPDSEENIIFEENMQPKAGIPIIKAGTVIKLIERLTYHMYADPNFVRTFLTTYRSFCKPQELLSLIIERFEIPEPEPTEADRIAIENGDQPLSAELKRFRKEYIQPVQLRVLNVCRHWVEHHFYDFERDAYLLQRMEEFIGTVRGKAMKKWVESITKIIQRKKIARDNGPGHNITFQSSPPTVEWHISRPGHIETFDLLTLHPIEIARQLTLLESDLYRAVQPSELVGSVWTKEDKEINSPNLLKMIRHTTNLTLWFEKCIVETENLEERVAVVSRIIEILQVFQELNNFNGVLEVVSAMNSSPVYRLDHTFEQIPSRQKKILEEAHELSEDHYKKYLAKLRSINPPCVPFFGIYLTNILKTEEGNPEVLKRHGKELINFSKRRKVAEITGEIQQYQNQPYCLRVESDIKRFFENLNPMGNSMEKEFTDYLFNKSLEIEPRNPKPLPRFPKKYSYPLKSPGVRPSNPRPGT
Description: SOS1 GTP substitution inhibition test (HTRF/TR-FRET, KRAS G12C-SOS1 binding inhibitory ability). It counts as biochemical. Conditions: HTRF, GST-KRAS G12C (2-169), SOS1-Strep (564-1049), 1.6, 8, 40, 200, 1,000 nM. The procedure: In order to determine whether the substitution function of SOS1 binding to KRAS G12C is inhibited by the above-described example compounds, a homogeneous time-resolved fluorescence (HTRF) test was performed using G12C(#MSC-11-538) and SOS1-Strep(#MSC-11-502) purchased from Reaction Biology Corporation (MA, USA). The activity of SOS1 enzyme was determined by measuring the amount of GTP bound to KRAS G12C proteins, using the principle of time-resolved fluorescence energy transfer (TR-FRET). Based on the principle that terbium bound to the GST-binding antibody of the GST-KRAS G12C protein acts as a donor of fluorescence resonance energy transfer (FRET), and the GTP bound to the KRAS G12C protein is labeled with the fluorescent agent DY-647P1 and acts as a receiver, when the more GTP is bound to the KRAS G12C protein by the substitution reaction of SOS1 according to this test, the higher HTRF or FRET signal is measured. To summarize, glutathione S-transferase (GST)-tagged KRAS G12C proteins (consisting of amino acid residues 2 to 169) required for the reaction, streptavidin-tagged SOS1 proteins (consisting of amino acid residues 564 to 1049 which are the catalytic domain), anti-GST antibody (#61[…]) purchased from CISBIO corporation, nucleic acid (#NU-820-647P1) purchased from Jena Bioscience GmbH were mixed in a buffer solution formed from 10 mM HEPES pH7.4, 150 mM NaCl, 5 mM MgCl2, and 1 mM dithiothreitol (DTT), and the mixture was added to a 384-well plate and reacted at room temperature. Next, FRET signals were measured with a Perkin Elmer Envision microplate reader. In this case, an excitation signal (excitation) was measured at 320 nm, and an emission signal (emission) was measured at 615/665 nm. The fluorescence measurement value when the SOS1 protein was not included was calculated as a background signal value, and the background signal value was subtracted from all of the measured HTRF values. The fluorescence measurement value when the synthesized compound was not included was measured as a control value, and this value was selected as a reference point of 100%. For each of the example compounds, fluorescence was measured at concentrations of 1.6, 8, 40, 200, and 1,000 nM (5 points, 5-fold), and the 50% activity inhibition value (IC50) of each of the compounds was calculated using GraphPad Prism. When the IC50 value was 50 nM or less, the inhibitory ability was denoted as +++. When the IC50 value was more than 50 nM and 100 nM or less, the inhibitory ability was denoted as ++. When the IC50 value was more than 100 nM, the inhibitory ability was denoted as +.
(In general: TR-FRET usually uses a lanthanide donor and a delayed reading to cut background.)
For `Cc1nc(N[C@H](C)c2cc(N)cc(C(F)(F)F)c2)c2cc(NC3CCOCC3)c(C(=O)N3CCOCC3)cc2n1` [Example 48, (R)-(4-((1-(3-amino-5-(trifluoromethyl)phenyl)ethyl)amino)-2-methyl-6-((tetrahydro-2H-pyran-4-yl)amino)quinazoline-7-yl)(morpholino)methanone], the IC50 is above 100 nM.

Take `CNc1cc2c(N[C@H](C)c3cc(N)cc(C(F)(F)F)c3)nc(C)nc2cc1CN1CCOCC1` [Example 49, (R)-N^4-(1-(3-amino-5-(trifluoromethyl)phenyl)ethyl)-N^6,2-dimethyl-7-(morpholinomethyl)quinazoline-4,6-diamine]: the IC50 fell in the range of 50 to 100 nM.

On to `CNc1cc2c(N[C@H](C)c3cc(N)cc(C(F)(F)F)c3F)nc(C)nc2cc1C(=O)N1CCOCC1` [Example 50, (R)-(4-((1-(5-amino-2-fluoro-3-(trifluoromethyl)phenyl)ethyl)amino)-2-methyl-6-(methylamino)quinazoline-7-yl)(morpholino)methanone], for which the IC50 was at most 50 nM.

Consider `CNc1cc2c(N[C@H](C)c3cc(N)cc(C(F)F)c3)nc(C)nc2cc1C(=O)N1CCOCC1` [Example 51, (R)-(4-((1-(3-amino-5-(difluoromethyl)phenyl)ethyl)amino)-2-methyl-6-(methylamino)quinazoline-7-yl)(morpholino)methanone], for which the IC50 was at most 50 nM.

On to `CCNc1cc2c(N[C@H](C)c3cc(N)cc(C(F)F)c3F)nc(C)nc2cc1C(=O)N1CCOCC1` [Example 52, (R)-(4-((1-(5-amino-3-(difluoromethyl)-2-fluorophenyl)ethyl)amino)-6-(ethylamino)-2-methylquinazoline-7-yl)(morpholino)methanone], for which the IC50 lay in the range of 50 to 100 nM.

`CNc1cc2c(N[C@H](C)c3cc(N)cc(C(F)(F)F)c3)nc(C)nc2cc1C(=O)N1CCSC1` [Example 53, (R)-(4-((1-(3-amino-5-(trifluoromethyl)phenyl)ethyl)amino)-2-methyl-6-(methylamino)quinazoline-7-yl)(thiazolidine-3-yl)methanone] displayed an IC50 of at most 50 nM.

With `CNc1cc2c(N[C@H](C)c3cc(N)cc(-c4ccoc4)c3)nc(C)nc2cc1C(=O)N1CCOCC1` [Example 54, (R)-(4-((1-(3-amino-5-(furan-3-yl)phenyl)ethyl)amino)-2-methyl-6-(methylamino)quinazolin-7-yl)(morpholino)methanone], the IC50 was in the range of 50 to 100 nM.

In turn, `Cc1nc(N[C@H](C)c2cc(N)cc(C(F)F)c2F)c2cc(NC(C)C)c(C(=O)N3CCOCC3)cc2n1` [Example 55, (R)-4-((1-(5-amino-3-(difluoromethyl)-2-fluorophenyl)ethyl)amino)-6-(isopropylamino)-2-methylquinazoline-7-(yl)(morpholino)methanone] showed an IC50 of at most 50 nM.

`COCCNc1cc2c(N[C@H](C)c3cc(N)cc(C(F)F)c3F)nc(C)nc2cc1C(=O)N1CCOCC1` [Example 56, (R)-(4-((1-(5-amino-3-(difluoromethyl)-2-fluorophenyl)ethyl)amino)-6-((2-methoxyethyl)amino)-2-methylquinazolin-7-yl)(morpholino)methanone] returned an IC50 of at most 50 nM.

In turn, `CNc1cc2c(N[C@H](C)c3cc(N)cc(C(F)(F)F)c3)nc(C)nc2cc1C(=O)N1CCN(C)CC1` [Example 57, (R)-(4-((1-(3-amino-5-(trifluoromethyl)phenyl)ethyl)amino)-2-methyl-6-(methylamino)quinazoline-7-yl)(4-methylpiperazin-1-yl)methanone] had an IC50 of 50 to 100 nM.

`CNc1cc2c(N[C@H](C)c3cc(N)cc(C(F)(F)F)c3)nc(C)nc2cc1C(=O)N1CC2COCC2C1` (stereo partly drawn) [Example 58, (4-(((R)-1-(3-amino-5-(trifluoromethyl)phenyl)ethyl)amino)-2-methyl-6-(methylamino)quinazoline-7-yl)(tetrahydro-1H-furo[3,4-c]pyrrol-5(3H)-yl)methanone] registered a concentration for half-maximal inhibition (IC50) of at most 50 nM.

`CNc1cc2c(N[C@H](C)c3cc(N)cc(C(F)(F)F)c3)nc(C)nc2cc1C(=O)N1CCS(=O)(=O)CC1` [Example 59, (R)-(4-((1-(3-amino-5-(trifluoromethyl)phenyl)ethyl)amino)-2-methyl-6-(methylamino)quinazolin-7-yl)(1,1-dioxothiomorpholino)methanone] returned an IC50 of at most 50 nM.

Take `CNc1cc2c(N[C@H](C)c3cc(N)cc(C(F)(F)F)c3)nc(C)nc2cc1C(=O)N1CCSCC1` [Example 60, (R)-(4-((1-(3-amino-5-(trifluoromethyl)phenyl)ethyl)amino)-2-methyl-6-(methylamino)quinazolin-7-yl)(thiomorpholino)methanone]: the IC50 was at most 50 nM.

`CNc1cc2c(N[C@H](C)c3cc(N)cc(C(F)(F)F)c3)nc(C)nc2cc1C(=O)N1CCNCC1` [Example 61, (R)-(4-((1-(3-amino-5-(trifluoromethyl)phenyl)ethyl)amino)-2-methyl-6-(methylamino)quinazoline-7-yl)(piperazine-1-yl)methanone]: the half-inhibitory concentration (IC50) is at most 50 nM.

`CNc1cc2c(N[C@H](C)c3cc(N)cc(C(F)(F)F)c3)nc(C)nc2cc1C(=O)N1CCC1` [Example 62, (R)-(4-((1-(3-amino-5-(trifluoromethyl)phenyl)ethyl)amino)-2-methyl-6-(methylamino)quinazoline-7-yl)(azetidine-1-yl)methanone] gave an IC50 of 50 to 100 nM.

Molecule `CNc1cc2c(N[C@H](C)c3cc(N)cc(C(F)F)c3F)nc(C)nc2cc1C(=O)N1CC2COCC2C1` (stereo partly drawn) [Example 63, (4-(((R)-1-(5-amino-3-(difluoromethyl)-2-fluorophenyl)ethyl)amino)-2-methyl-6-(methylamino)quinazoline-7-yl)(tetrahydro-1H-furo[3,4-c]pyrrol-5(3H)-yl)methanone] yielded a 50% inhibitory concentration (IC50) of at most 50 nM.

As to `CNc1cc2c(N[C@H](C)c3cc(N)cc(C(F)F)c3F)nc(C)nc2cc1C(=O)N1CCS(=O)(=O)CC1` [Example 64, (R)-(4-((1-(5-amino-3-(difluoromethyl)-2-fluorophenyl)ethyl)amino)-2-methyl-6-(methylamino)quinazoline-7-yl)(1,1-dioxothiomorpholino)methanone], the IC50 was at most 50 nM.

The molecule `CNc1cc2c(N[C@H](C)c3cc(C)cc(N)c3)nc(C)nc2cc1C(=O)N1CCOCC1` [Example 65, (R)-(4-((1-(3-amino-5-methylphenyl)ethyl)amino)-2-methyl-6-(methylamino)quinazolin-7-yl)(morpholino)methanone] returned an IC50 of 50 to 100 nM.

`COCCNc1cc2c(N[C@H](C)c3cc(N)cc(C(F)(F)F)c3)nc(C)nc2cc1C(=O)N1CCS(=O)(=O)CC1` [Example 68, (R)-(4-((1-(3-amino-5-(trifluoromethyl)phenyl)ethyl)amino)-6-((2-methoxyethyl)amino)-2-methylquinazoline-7-yl)(1,1-dioxothiomorpholino)methanone] showed an IC50 of at most 50 nM.

For `COc1cc2c(N[C@H](C)c3cc(N)cc(C(F)(F)F)c3)nc(C)nc2cc1NC1CCOCC1` [Example 69, (R)-NM-(1-(3-amino-5-(trifluoromethyl)phenyl)ethyl)-6-methoxy-2-methyl-N^7-(tetrahydro-2H-pyran-4-yl)quinazoline-4,7-diamine], the IC50 is above 100 nM.
